Source: patent publication US12582722B2, “Bifunctional compounds for degrading BTK via ubiquitin proteosome pathway” (NURIX THERAPEUTICS, INC., priority 2019, dated 2026)

Molecular target: T1, BTK (Homo sapiens, UniProt Q06187)
T1 construct: endogenous in cells; host or cells: Ramos (ATCC CRL-1596)
Test: Cellular BTK HTRF Assay (BTK degradation in Ramos cells)
Type: cell-based
Details: four hours incubation, 37° C., BTK levels relative to DMSO-treated cells
Procedure: Ramos (CRL-1596) cells were obtained from American Type Culture Collection and were grown in RPMI-1640 media (ATCC, 30-2001) supplemented with 10% heat-inactivated FBS (Corning Premium Fetal Bovine Serum from Fisher, MT35015CV).
Compounds of the present invention were added to 50,000 Ramos cells in round-bottom 96 well plates with a final DMSO concentration of […] and were incubated at 37° C., 5% CO2 for four hours. BTK levels were determined using Cisbio Total-BTK HTRF ([…] Time-Resolved Fluorescence) kit (63ADK064PEG) according to manufacturer's protocol. Briefly, cells were incubated in 1× supplied lysis buffer for 30 minutes. In an opaque white low volume 96 well plate (Cisbio, 66PL96005), cell lysate was combined with two different specific BTK antibodies, one conjugated with Eu^3+-Cryptate FRET donor and one conjugated with d2 FRET acceptor. Assay controls include wells containing cell lysate with only the Eu^3+-Cryptate FRET donor antibody and wells containing both HTRF antibodies and lysis buffer without cells or control lysate provided by Cisbio. HTRF ratio was calculated as (acceptor signal at 665 nm/donor signal at 620 nm)×10^4. Background HTRF levels were determined from the control well containing the donor, but no acceptor, antibody. Background HTRF levels were subtracted from all samples. Readouts were reported as HTRF levels relative to HTRF levels of DMSO-treated cells. Four-parameter non-linear regressions were performed in GraphPad Prism 7.02 to obtain DC50 values. DC50 values are provided in Table 3, wherein A<7.5 nM, 7.5 nM≤B≤50 nM, and 50 nM<C<500 nM.

T1 sequence (Q06187 whole entry): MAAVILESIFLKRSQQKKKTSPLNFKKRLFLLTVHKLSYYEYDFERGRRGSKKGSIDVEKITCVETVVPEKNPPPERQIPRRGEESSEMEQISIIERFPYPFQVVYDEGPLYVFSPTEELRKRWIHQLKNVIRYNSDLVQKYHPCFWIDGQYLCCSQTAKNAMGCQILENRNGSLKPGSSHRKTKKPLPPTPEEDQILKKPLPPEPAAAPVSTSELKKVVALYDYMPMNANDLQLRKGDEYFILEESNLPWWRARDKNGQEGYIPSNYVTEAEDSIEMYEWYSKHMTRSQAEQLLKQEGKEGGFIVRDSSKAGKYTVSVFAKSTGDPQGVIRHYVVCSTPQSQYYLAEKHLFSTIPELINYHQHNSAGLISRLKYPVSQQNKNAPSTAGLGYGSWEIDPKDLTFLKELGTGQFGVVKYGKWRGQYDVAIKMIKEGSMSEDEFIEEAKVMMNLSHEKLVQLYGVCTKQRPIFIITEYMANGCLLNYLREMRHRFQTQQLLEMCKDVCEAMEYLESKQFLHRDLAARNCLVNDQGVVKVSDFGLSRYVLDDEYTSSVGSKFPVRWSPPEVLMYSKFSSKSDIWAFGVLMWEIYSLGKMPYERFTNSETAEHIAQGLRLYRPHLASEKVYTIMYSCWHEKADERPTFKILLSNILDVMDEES

| DC50 [nM] | Structure (SMILES) |
| --- | --- |
| 50 to 500 | Cc1cc(Nc2nc(N3CCCC(NC(=O)CCOCCCc4cccc5c4CN(C4CCC(=O)NC4=O)C5=O)C3)cnc2C(N)=O)sn1 (stereo in doubt) [Compound 45, 5-[(3R)-3-(3-{3-[2-(2,6-dioxopiperidin-3-yl)-1-oxo-3H-isoindol-4-yl]propoxy}propanamido)piperidin-1-yl]-3-[(3-methyl-1,2-thiazol-5-yl)amino]pyrazine-2-carboxamide] |
| 7.5 to 50 | CS(=O)(=O)c1ccc(Nc2nc(N3CCC[C@@H](NC(=O)OCCCCCOc4ccc5c(c4)C(=O)N(C4CCC(=O)NC4=O)C5=O)C3)cnc2C(N)=O)cc1 (stereo partly drawn) [Compound 2, 5-((2-(2,6-dioxopiperidin-3-yl)-1,3-dioxoisoindolin-5-yl)oxy)pentyl ((R)-1-(5-carbamoyl-6-((4-(methylsulfonyl)phenyl)amino)pyrazin-2-yl)piperidin-3-yl)carbamate] |
| 7.5 to 50 | CS(=O)(=O)c1ccc(Nc2nc(N3CCC[C@@H](NC(=O)OCCCCCCCOc4ccc5c(c4)C(=O)N(C4CCC(=O)NC4=O)C5=O)C3)cnc2C(N)=O)cc1 (stereo partly drawn) [Compound 3, 7-((2-(2,6-dioxopiperidin-3-yl)-1,3-dioxoisoindolin-5-yl)oxy)heptyl ((R)-1-(5-carbamoyl-6-((4-(methylsulfonyl)phenyl)amino)pyrazin-2-yl)piperidin-3-yl)carbamate] |
| 50 to 500 | CS(=O)(=O)c1ccc(Nc2nc(N3CCC[C@@H](NC(=O)CCCCc4ccc5c(c4)C(=O)N(C4CCC(=O)NC4=O)C5)C3)cnc2C(N)=O)cc1 (stereo partly drawn) [Compound 4, 5-[(3R)-3-{5-[2-(2,6-dioxopiperidin-3-yl)-3-oxo-1H-isoindol-5-yl]pentanamido}piperidin-1-yl]-3-[(4-methanesulfonylphenyl)amino]pyrazine-2-carboxamide] |
| 50 to 500 | CS(=O)(=O)c1ccc(Nc2nc(N3CCC[C@@H](NC(=O)CCCCCCc4cccc5c4CN(C4CCC(=O)NC4=O)C5=O)C3)cnc2C(N)=O)cc1 (stereo partly drawn) [Compound 5, 5-[(3R)-3-{7-[2-(2,6-dioxopiperidin-3-yl)-1-oxo-3H-isoindol-4-yl]heptanamido}piperidin-1-yl]-3-[(4-methanesulfonylphenyl)amino]pyrazine-2-carboxamide] |
| 7.5 to 50 | CS(=O)(=O)c1ccc(Nc2nc(N3CCC[C@@H](NC(=O)OCCC4CCN(c5ccc6c(c5)C(=O)N(C5CCC(=O)NC5=O)C6=O)CC4)C3)cnc2C(N)=O)cc1 (stereo partly drawn) [Compound 6, 2-(1-(2-(2,6-dioxopiperidin-3-yl)-1,3-dioxoisoindolin-5-yl)piperidin-4-yl)ethyl ((R)-1-(5-carbamoyl-6-((4-(methylsulfonyl)phenyl)amino)pyrazin-2-yl)piperidin-3-yl)carbamate] |
| 50 to 500 | Cc1cc(Nc2nc(N3CCC[C@@H](NC(=O)OCCC4CCN(c5ccc6c(c5)C(=O)N(C5CCC(=O)NC5=O)C6=O)CC4)C3)cnc2C(N)=O)sn1 (stereo partly drawn) [Compound 7, 2-(1-(2-(2,6-dioxopiperidin-3-yl)-1,3-dioxoisoindolin-5-yl)piperidin-4-yl)ethyl ((R)-1-(5-carbamoyl-6-((3-methylisothiazol-5-yl)amino)pyrazin-2-yl)piperidin-3-yl)carbamate] |
| 7.5 to 50 | CS(=O)(=O)c1ccc(Nc2nc(N3CCC[C@@H](NC(=O)OCC4CCN(c5ccc6c(c5)C(=O)N(C5CCC(=O)NC5=O)C6=O)CC4)C3)cnc2C(N)=O)cc1 (stereo partly drawn) [Compound 8, (1-(2-(2,6-dioxopiperidin-3-yl)-1,3-dioxoisoindolin-5-yl)piperidin-4-yl)methyl ((R)-1-(5-carbamoyl-6-((4-(methylsulfonyl)phenyl)amino)pyrazin-2-yl)piperidin-3-yl)carbamate] |
| 50 to 500 | CS(=O)(=O)c1ccc(Nc2nc(N3CCC[C@@H](NC(=O)OC[C@@H]4CCN(c5ccc6c(c5)C(=O)N(C5CCC(=O)NC5=O)C6=O)C4)C3)cnc2C(N)=O)cc1 (stereo partly drawn) [Compound 9, ((3R)-1-(2-(2,6-dioxopiperidin-3-yl)-1,3-dioxoisoindolin-5-yl)pyrrolidin-3-yl)methyl ((R)-1-(5-carbamoyl-6-((4-(methylsulfonyl)phenyl)amino)pyrazin-2-yl)piperidin-3-yl)carbamate] |
| 7.5 to 50 | CS(=O)(=O)c1ccc(Nc2nc(N3CCC[C@@H](NC(=O)N4CCC5(CCN(c6ccc7c(c6)C(=O)N(C6CCC(=O)NC6=O)C7=O)CC5)C4)C3)cnc2C(N)=O)cc1 (stereo partly drawn) [Compound 10, N—((R)-1-(5-carbamoyl-6-((4-(methylsulfonyl)phenyl)amino)pyrazine-2-yl)piperidin-3-yl)-8-(2-(2,6-dioxopiperidin-3-yl)-1,3-dioxoisoindolin-5-yl)-2,8-diazaspiro[4.5]decane-2-carboxamide] |
| < 7.5 | CS(=O)(=O)c1ccc(Nc2nc(N3CCC[C@@H](NC(=O)N4CCC5(CC4)CCN(c4ccc6c(c4)C(=O)N(C4CCC(=O)NC4=O)C6=O)CC5)C3)cnc2C(N)=O)cc1 (stereo partly drawn) [Compound 11, N-[(3R)-1-{5-carbamoyl-6-[(4-methanesulfonylphenyl)amino]pyrazin-2-yl}piperidin-3-yl]-9-[2-(2,6-dioxopiperidin-3-yl)-1,3-dioxoisoindol-5-yl]-3,9-diazaspiro[5.5]undecane-3-carboxamide] |
| 7.5 to 50 | Cc1cc(Nc2nc(N3CCC[C@@H](NC(=O)N4CCC5(CC4)CCN(c4ccc6c(c4)C(=O)N(C4CCC(=O)NC4=O)C6=O)CC5)C3)cnc2C(N)=O)sn1 (stereo partly drawn) [Compound 12, N-[(3R)-1-{5-carbamoyl-6-[(3-methyl-1,2-thiazol-5-yl)amino]pyrazin-2-yl}piperidin-3-yl]-9-[2-(2,6-dioxopiperidin-3-yl)-1,3-dioxoisoindol-5-yl]-3,9-diazaspiro[5.5]undecane-3-carboxamide] |
| < 7.5 | CS(=O)(=O)c1ccc(Nc2nc(N3CCC[C@@H](NC(=O)N4CCC5(CCN(Cc6ccc7c(c6)C(=O)N(C6CCC(=O)NC6=O)C7=O)C5)CC4)C3)cnc2C(N)=O)cc1 (stereo partly drawn) [Compound 13, N-[(3R)-1-{5-carbamoyl-6-[(4-methanesulfonylphenyl)amino]pyrazin-2-yl}piperidin-3-yl]-2-{[2-(2,6-dioxopiperidin-3-yl)-1,3-dioxoisoindol-5-yl]methyl}-2,8-diazaspiro[4.5]decane-8-carboxamide] |
| < 7.5 | CS(=O)(=O)c1ccc(Nc2nc(N3CCC[C@@H](NC(=O)C4CCN(CC5CCN(c6ccc7c(c6)C(=O)N(C6CCC(=O)NC6=O)C7=O)CC5)C4)C3)cnc2C(N)=O)cc1 (stereo partly drawn) [Compound 14, 5-[(3R)-3-[1-({1-[2-(2,6-dioxopiperidin-3-yl)-1,3-dioxoisoindol-5-yl]piperidin-4-yl}methyl)pyrrolidine-3-amido]piperidin-1-yl]-3-[(4-methanesulfonylphenyl)amino]pyrazine-2-carboxamide] |
| < 7.5 | Cc1cc(Nc2nc(N3CCC[C@@H](NC(=O)C4CCN(CC5CCN(c6ccc7c(c6)C(=O)N(C6CCC(=O)NC6=O)C7=O)CC5)C4)C3)cnc2C(N)=O)sn1 (stereo partly drawn) [Compound 15, 5-[(3R)-3-[1-({1-[2-(2,6-dioxopiperidin-3-yl)-1,3-dioxoisoindol-5-yl]piperidin-4-yl}methyl)pyrrolidine-3-amido]piperidin-1-yl]-3-[(3-methyl-1,2-thiazol-5-yl)amino]pyrazine-2-carboxamide] |
| < 7.5 | Cc1cc(Nc2nc(N3CCC[C@@H](NC(=O)C4CCN(CC5CN(c6ccc7c(c6)C(=O)N(C6CCC(=O)NC6=O)C7=O)C5)C4)C3)cnc2C(N)=O)sn1 (stereo partly drawn) [Compound 16, 5-[(3R)-3-[1-({1-[2-(2,6-dioxopiperidin-3-yl)-1,3-dioxoisoindol-5-yl]azetidin-3-yl}methyl)pyrrolidine-3-amido]piperidin-1-yl]-3-[(3-methyl-1,2-thiazol-5-yl)amino]pyrazine-2-carboxamide] |
| < 7.5 | Cc1cc(Nc2nc(N3CCC[C@@H](NC(=O)C4CCN(CC5CN(c6ccc7c(c6)C(=O)N(C6CCC(=O)NC6=O)C7=O)C5)CC4)C3)cnc2C(N)=O)sn1 (stereo partly drawn) [Compound 17, 5-[(3R)-3-[1-({1-[2-(2,6-dioxopiperidin-3-yl)-1,3-dioxoisoindol-5-yl]azetidin-3-yl}methyl)piperidine-4-amido]piperidin-1-yl]-3-[(3-methyl-1,2-thiazol-5-yl)amino]pyrazine-2-carboxamide] |
| < 7.5 | Cc1cc(Nc2nc(N3CCC[C@@H](NC(=O)N4CCN(CC5CN(c6ccc7c(c6)C(=O)N(C6CCC(=O)NC6=O)C7=O)C5)CC4)C3)cnc2C(N)=O)sn1 (stereo partly drawn) [Compound 18, 5-[(3R)-3-[4-({1-[2-(2,6-dioxopiperidin-3-yl)-1,3-dioxoisoindol-5-yl]azetidin-3-yl}methyl)piperazine-1-carbonylamino]piperidin-1-yl]-3-[(3-methyl-1,2-thiazol-5-yl)amino]pyrazine-2-carboxamide] |
| < 7.5 | Cn1cc(Nc2nc(N3CCC[C@@H](NC(=O)C4CCN(CC5CN(c6ccc7c(c6)C(=O)N(C6CCC(=O)NC6=O)C7=O)C5)CC4)C3)cnc2C(N)=O)cn1 (stereo partly drawn) [Compound 19, 5-[(3R)-3-[1-({1-[2-(2,6-dioxopiperidin-3-yl)-1,3-dioxoisoindol-5-yl]azetidin-3-yl}methyl)piperidine-4-amido]piperidin-1-yl]-3-[(1-methylpyrazol-4-yl)amino]pyrazine-2-carboxamide] |
